Reference: PubChem BioAssay AID1963968 (Molecular Pharmacology Branch, DTP, NCI, 2024)

Tested on: 945468-187-T-J3-PDC spheroids with HUVEC/MSC, viability
Assay: Anticancer human tumor 945468-187-T-J3-PDC patient-derived rectal carcinoma cell line growth inhibition [PI3K]
Conditions: for IC50: curve of first compound; for viability, T/C: stronger effect = lower value
Procedure, shortened: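 Tumor cells were combined with HUVEC and MSCs into spheroids, then dosed with PI3K-inhibitor combinations over half-log ranges capped near clinical Cmax or 10 microM.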

[1] = second compound 0.00316 µM, first compound 0.0316 µM
[2] = second compound 0.00316 µM, first compound 0.1 µM
[3] = second compound 0.00316 µM, first compound 0.316 µM
[4] = second compound 0.00316 µM, first compound 1 µM
[5] = second compound 0.00316 µM, first compound 3.16 µM
[6] = second compound 0.00316 µM, first compound 10 µM
[7] = second compound 0.01 µM, first compound 0.0316 µM
[8] = second compound 0.01 µM, first compound 0.1 µM
[9] = second compound 0.01 µM, first compound 0.316 µM
[10] = second compound 0.01 µM, first compound 1 µM
[11] = second compound 0.01 µM, first compound 3.16 µM
[12] = second compound 0.01 µM, first compound 10 µM
[13] = second compound 0.0316 µM, first compound 0.0316 µM
[14] = second compound 0.0316 µM, first compound 0.1 µM
[15] = second compound 0.0316 µM, first compound 0.316 µM
[16] = second compound 0.0316 µM, first compound 1 µM
[17] = second compound 0.0316 µM, first compound 3.16 µM
[18] = second compound 0.0316 µM, first compound 10 µM
[19] = second compound 0.1 µM, first compound 0.0316 µM
[20] = second compound 0.1 µM, first compound 0.1 µM
[21] = second compound 0.1 µM, first compound 0.316 µM
[22] = second compound 0.1 µM, first compound 1 µM
[23] = second compound 0.1 µM, first compound 3.16 µM
[24] = second compound 0.1 µM, first compound 10 µM
[25] = second compound 0.316 µM, first compound 0.0316 µM
[26] = second compound 0.316 µM, first compound 0.1 µM
[27] = second compound 0.316 µM, first compound 0.316 µM
[28] = second compound 0.316 µM, first compound 1 µM
[29] = second compound 0.316 µM, first compound 3.16 µM
[30] = second compound 0.316 µM, first compound 10 µM
[31] = second compound 1 µM, first compound 0.0316 µM
[32] = second compound 1 µM, first compound 0.1 µM
[33] = second compound 1 µM, first compound 0.316 µM
[34] = second compound 1 µM, first compound 1 µM
[35] = second compound 1 µM, first compound 3.16 µM
[36] = second compound 1 µM, first compound 10 µM
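Also: spheroids exposed to agents for 7 days before viability read.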
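For viability, T/C in this document: 100% = DMSO vehicle control viability.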

Compound: Cn1nccc1Nc1nccc(-c2ccn(C(CO)c3ccc(Cl)c(F)c3)c(=O)c2)n1 (stereo unspecified) + CC(Nc1ccc2c(c1)OCCn1cc(N3C(=O)OCC3C(F)F)nc1-2)C(N)=O
- IC50 (second compound 0.00316 µM): > 10 µM
- IC50 (second compound 0.01 µM): > 10 µM
- IC50 (second compound 0.0316 µM): > 10 µM
- IC50 (second compound 0.1 µM): > 10 µM
- IC50 (second compound 0.316 µM): > 10 µM
- IC50 (second compound 1 µM): > 10 µM
- viability, T/C [1]: 93.2%
- viability, T/C [2]: 108%
- viability, T/C [3]: 103%
- viability, T/C [4]: 120%
- viability, T/C [5]: 143%
- viability, T/C [6]: 145%
- viability, T/C [7]: 103%
- viability, T/C [8]: 101%
- viability, T/C [9]: 97.5%
- viability, T/C [10]: 115%
- viability, T/C [11]: 124%
- viability, T/C [12]: 131%
- viability, T/C [13]: 106%
- viability, T/C [14]: 99.4%
- viability, T/C [15]: 106%
- viability, T/C [16]: 122%
- viability, T/C [17]: 131%
- viability, T/C [18]: 123%
- viability, T/C [19]: 102%
- viability, T/C [20]: 108%
- viability, T/C [21]: 115%
- viability, T/C [22]: 124%
- viability, T/C [23]: 115%
- viability, T/C [24]: 116%
- viability, T/C [25]: 97.3%
- viability, T/C [26]: 91.7%
- viability, T/C [27]: 97.2%
- viability, T/C [28]: 89.3%
- viability, T/C [29]: 78.3%
- viability, T/C [30]: 80.1%
- viability, T/C [31]: 78.8%
- viability, T/C [32]: 79.8%
- viability, T/C [33]: 65%
- viability, T/C [34]: 72%
- viability, T/C [35]: 60.7%
- viability, T/C [36]: 62.7%

Compound: CC(Cn1ccc(-c2ccc(C#N)c(Cl)c2)n1)NC(=O)c1cc(C(C)O)[nH]n1 (stereo unspecified) + COc1c(OCCCN2CCOCC2)ccc2c3n(c(=NC(=O)c4cnc(N)nc4)nc12)CCN3
- IC50 (second compound 0.00316 µM): > 10 µM
- IC50 (second compound 0.01 µM): > 10 µM
- IC50 (second compound 0.0316 µM): > 10 µM
- IC50 (second compound 0.1 µM): < 0.0316 µM
- IC50 (second compound 0.316 µM): < 0.0316 µM
- IC50 (second compound 1 µM): < 0.0316 µM
- viability, T/C [1]: 96.6%
- viability, T/C [2]: 92.7%
- viability, T/C [3]: 95.7%
- viability, T/C [4]: 88.5%
- viability, T/C [5]: 93.9%
- viability, T/C [6]: 92.3%
- viability, T/C [7]: 93%
- viability, T/C [8]: 96.8%
- viability, T/C [9]: 103%
- viability, T/C [10]: 94.8%
- viability, T/C [11]: 98.6%
- viability, T/C [12]: 96.5%
- viability, T/C [13]: 107%
- viability, T/C [14]: 81%
- viability, T/C [15]: 95.9%
- viability, T/C [16]: 95.7%
- viability, T/C [17]: 109%
- viability, T/C [18]: 88.2%
- viability, T/C [19]: 49.1%
- viability, T/C [20]: 50%
- viability, T/C [21]: 49.1%
- viability, T/C [22]: 48.9%
- viability, T/C [23]: 48.2%
- viability, T/C [24]: 54.7%
- viability, T/C [25]: 23.3%
- viability, T/C [26]: 24.2%
- viability, T/C [27]: 18.5%
- viability, T/C [28]: 21.6%
- viability, T/C [29]: 27.5%
- viability, T/C [30]: 23.1%
- viability, T/C [31]: 18.8%
- viability, T/C [32]: 15.6%
- viability, T/C [33]: 16.6%
- viability, T/C [34]: 15.2%
- viability, T/C [35]: 18.7%
- viability, T/C [36]: 16.1%

Compound: CCCS(=O)(=O)Nc1ccc(F)c(C(=O)c2c[nH]c3ncc(-c4ccc(Cl)cc4)cc23)c1F + COc1c(OCCCN2CCOCC2)ccc2c3n(c(=NC(=O)c4cnc(N)nc4)nc12)CCN3
- IC50 (second compound 0.00316 µM): > 10 µM
- IC50 (second compound 0.01 µM): > 10 µM
- IC50 (second compound 0.0316 µM): 7.31 µM
- IC50 (second compound 0.1 µM): < 0.0316 µM
- IC50 (second compound 0.316 µM): < 0.0316 µM
- IC50 (second compound 1 µM): < 0.0316 µM
- viability, T/C [1]: 106%
- viability, T/C [2]: 81%
- viability, T/C [3]: 88.9%
- viability, T/C [4]: 77.7%
- viability, T/C [5]: 87.2%
- viability, T/C [6]: 52.3%
- viability, T/C [7]: 86.6%
- viability, T/C [8]: 77.3%
- viability, T/C [9]: 86.2%
- viability, T/C [10]: 87.7%
- viability, T/C [11]: 95.8%
- viability, T/C [12]: 74.2%
- viability, T/C [13]: 83.8%
- viability, T/C [14]: 89.4%
- viability, T/C [15]: 79.1%
- viability, T/C [16]: 89.6%
- viability, T/C [17]: 86.1%
- viability, T/C [18]: 36.7%
- viability, T/C [19]: 42.2%
- viability, T/C [20]: 48.9%
- viability, T/C [21]: 38.2%
- viability, T/C [22]: 43.6%
- viability, T/C [23]: 28.7%
- viability, T/C [24]: 8.36%
- viability, T/C [25]: 18.8%
- viability, T/C [26]: 20.2%
- viability, T/C [27]: 20.1%
- viability, T/C [28]: 22.2%
- viability, T/C [29]: 20.9%
- viability, T/C [30]: 7.04%
- viability, T/C [31]: 15.5%
- viability, T/C [32]: 16.1%
- viability, T/C [33]: 18.2%
- viability, T/C [34]: 18.5%
- viability, T/C [35]: 15.2%
- viability, T/C [36]: 6.57%
